Experimental data reported in US20170217976A1, “6-(AMINO ACID)-MORPHINAN DERIVATIVES IN COMBINATION WITH PERMEATION […] FOR USE AS AN ORALLY, […], TRA[…] NASALLY AD[…]” (C[…], priority 2014, published 2017).
Read-outs that look alike come from different tables or passages of the source.

Legend:
MOR = target: T1, MOR (Rattus norvegicus, UniProt P33535); test: Opioid receptor binding, MOR, rat brain membranes; details: in vitro binding assay, rat brain membranes
T1 construct: from tissue

DOR = target: T2, DOR (Rattus norvegicus, UniProt P33533); test: Opioid receptor binding, DOR, rat brain membranes
T2 construct: from tissue

KOR = target: T3, KOR (Cavia porcellus, UniProt P41144); test: Opioid receptor binding, KOR, guinea pig brain membranes
T3 construct: from tissue

[1] = Binding Ki (nM) DOR, in vitro binding assay, rat brain membranes
[2] = Binding Ki (nM) KOR, in vitro binding assay, guinea pig brain membranes
[3] = in vitro binding assay, rat brain membranes, read-out: Binding Ki (nM) DOR
[4] = in vitro binding assay, guinea pig brain membranes, read-out: Binding Ki (nM) KOR

T3 sequence (P41144 whole entry): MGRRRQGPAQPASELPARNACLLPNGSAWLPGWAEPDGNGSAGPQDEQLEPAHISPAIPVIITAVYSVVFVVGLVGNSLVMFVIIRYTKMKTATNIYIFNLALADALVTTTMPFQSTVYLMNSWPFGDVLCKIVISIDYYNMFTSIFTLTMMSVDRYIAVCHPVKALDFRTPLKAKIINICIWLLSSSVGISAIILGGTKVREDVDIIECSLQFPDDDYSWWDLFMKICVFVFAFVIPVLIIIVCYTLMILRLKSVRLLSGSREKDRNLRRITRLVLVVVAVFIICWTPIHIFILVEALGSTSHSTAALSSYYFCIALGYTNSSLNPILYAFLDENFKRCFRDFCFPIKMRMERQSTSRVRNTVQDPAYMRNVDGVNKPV
T1 sequence (P33535 whole entry): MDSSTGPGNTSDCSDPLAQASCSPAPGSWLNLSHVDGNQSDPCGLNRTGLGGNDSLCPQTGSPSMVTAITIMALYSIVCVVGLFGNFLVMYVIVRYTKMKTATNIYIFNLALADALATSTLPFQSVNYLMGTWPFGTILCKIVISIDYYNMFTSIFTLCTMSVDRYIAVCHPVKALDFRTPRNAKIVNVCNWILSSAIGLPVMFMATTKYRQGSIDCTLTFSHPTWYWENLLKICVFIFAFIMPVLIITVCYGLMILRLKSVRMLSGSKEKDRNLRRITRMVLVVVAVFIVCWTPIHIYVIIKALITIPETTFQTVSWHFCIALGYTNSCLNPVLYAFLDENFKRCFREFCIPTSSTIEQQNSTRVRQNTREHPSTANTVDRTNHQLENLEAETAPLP
T2 sequence (P33533 whole entry): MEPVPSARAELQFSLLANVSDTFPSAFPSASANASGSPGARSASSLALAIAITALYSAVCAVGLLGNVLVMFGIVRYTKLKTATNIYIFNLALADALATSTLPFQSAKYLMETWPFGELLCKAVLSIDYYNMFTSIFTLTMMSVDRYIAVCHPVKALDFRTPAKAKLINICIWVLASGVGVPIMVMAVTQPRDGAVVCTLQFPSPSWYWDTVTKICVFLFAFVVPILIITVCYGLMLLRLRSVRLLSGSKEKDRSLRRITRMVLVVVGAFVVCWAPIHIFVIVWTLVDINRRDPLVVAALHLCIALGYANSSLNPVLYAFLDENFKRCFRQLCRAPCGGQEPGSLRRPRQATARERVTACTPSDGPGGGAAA

| SMILES | Ki (MOR; Binding Ki (nM) MOR) [nM] | Ki (DOR; [1]) [nM] | Ki (KOR; [2]) [nM] | Ki (MOR; read-out: Binding Ki (nM) MOR) [nM] | Ki (DOR; [3]) [nM] | Ki (KOR; [4]) [nM] | Ki (DOR; Binding Ki DOR, Table 2-6, rat brain membranes) [nM] | Ki (KOR; Binding Ki KOR, Table 2-6, guinea pig brain membranes) [nM] |
| --- | --- | --- | --- | --- | --- | --- | --- | --- |
| CCO[C@@]12CC[C@H](NCC(=O)OC(C)(C)C)[C@@H]3Oc4c(O)ccc5c4[C@@]31CCN(C)[C@@H]2C5 [5-t-Bu ester] | 0.2 | 0.31 | 15 | – | – | – | – | – |
| CCO[C@@]12CC[C@@H](NCC(=O)OC(C)(C)C)[C@@H]3Oc4c(O)ccc5c4[C@@]31CCN(C)[C@@H]2C5 [6-t-Bu ester] | – | – | – | 0.81 | 0.57 | 34.1 | – | – |
| CCOC(=O)CNC1CCC2(OCCCc3ccccc3)C3Cc4ccc(O)c5c4C2(CCN3C)C1O5 (stereo not shown) [7-Et ester] | – | – | – | 0.43 | 0.25 | 0.44 | – | – |
| CN1CCC23c4c5ccc(O)c4OC2C(NCC(=O)OC(C)(C)C)CCC3(OCCCc2ccccc2)C1C5 (stereo not shown) [7-t-Bu ester] | – | – | – | 1.4 | 1.01 | 1.26 | – | – |
| CCOC(=O)CNC1CCC2(OCCCc3ccccc3)C3Cc4ccc(O)c5c4C2(CCN3C)C1O5 (stereo not shown) [8-Et ester] | – | – | – | 0.37 | 0.21 | 0.41 | – | – |
| CN1CCC23c4c5ccc(O)c4OC2C(NCC(=O)OC(C)(C)C)CCC3(OCCCc2ccccc2)C1C5 (stereo not shown) [8-t-Bu ester] | – | – | – | 1.03 | 0.92 | 2.02 | – | – |
| CO[C@@]12CC[C@H](N[C@@H](Cc3ccc(O)cc3)C(=O)OC(C)(C)C)[C@@H]3Oc4c(O)ccc5c4[C@@]31CCN(C)[C@@H]2C5 [9-t-Bu ester] | 0.59 | – | – | – | 0.42 | 12.3 | – | – |
| CO[C@@]12CC[C@@H](N[C@@H](Cc3ccc(O)cc3)C(=O)OC(C)(C)C)[C@@H]3Oc4c(O)ccc5c4[C@@]31CCN(C)[C@@H]2C5 [10-t-Bu ester] | – | – | – | 1.53 | 1.88 | 184 | – | – |
| CO[C@@]12CC[C@H](NCCCC(=O)OC(C)(C)C)[C@@H]3Oc4c(O)ccc5c4[C@@]31CCN(C)[C@@H]2C5 [15-t-Bu ester] | 0.22 | 7.99 | 8.82 | – | – | – | – | – |
| CO[C@@]12CC[C@@H](NCCCC(=O)OC(C)(C)C)[C@@H]3Oc4c(O)ccc5c4[C@@]31CCN(C)[C@@H]2C5 [16-t-Bu ester] | – | – | – | 0.54 | 1.63 | 8.79 | – | – |
| CO[C@@]12CC[C@H](N[C@@H](CCC(N)=O)C(=O)OC(C)(C)C)[C@@H]3Oc4c(O)ccc5c4[C@@]31CCN(C)[C@@H]2C5 [17-t-Bu ester] | 0.18 | 0.18 | 8.97 | – | – | – | – | – |
| CO[C@@]12CC[C@@H](N[C@@H](CCC(N)=O)C(=O)OC(C)(C)C)[C@@H]3Oc4c(O)ccc5c4[C@@]31CCN(C)[C@@H]2C5 [18-t-Bu ester] | 1.65 | 1.35 | 163 | – | – | – | – | – |
| CO[C@@]12CC[C@H](N[C@@H](CCC(=O)OC(C)(C)C)C(=O)OC(C)(C)C)[C@@H]3Oc4c(O)ccc5c4[C@@]31CCN(C)[C@@H]2C5 [19-t-Bu ester] | – | – | – | 0.27 | 0.32 | 18.3 | – | – |
| CO[C@@]12CC[C@@H](N[C@@H](CCC(=O)OC(C)(C)C)C(=O)OC(C)(C)C)[C@@H]3Oc4c(O)ccc5c4[C@@]31CCN(C)[C@@H]2C5 [20-t-Bu ester] | – | – | – | 1.53 | 0.19 | 81.5 | – | – |
| CO[C@@]12CC[C@H](NCCC(=O)OC(C)(C)C)[C@@H]3Oc4c(O)ccc5c4[C@@]31CCN(C)[C@@H]2C5 [21-t-Bu ester] | 0.31 | 0.83 | 13.5 | – | – | – | – | – |
| CO[C@@]12CC[C@@H](NCCC(=O)OC(C)(C)C)[C@@H]3Oc4c(O)ccc5c4[C@@]31CCN(C)[C@@H]2C5 [22-t-Bu ester] | 0.35 | 0.23 | 7.54 | – | – | – | – | – |
| CO[C@@]12CC[C@H](N[C@@H](CCSC)C(=O)OC(C)(C)C)[C@@H]3Oc4c(O)ccc5c4[C@@]31CCN(C)[C@@H]2C5 [23-t-Bu ester] | – | – | – | 0.32 | 0.12 | 10.5 | – | – |
| CO[C@@]12CC[C@@H](N[C@@H](CCSC)C(=O)OC(C)(C)C)[C@@H]3Oc4c(O)ccc5c4[C@@]31CCN(C)[C@@H]2C5 [24-t-Bu ester] | 1.83 | 0.81 | 166 | – | – | – | – | – |
| CO[C@@]12CC[C@@H](N[C@@H](C)C(=O)OC(C)(C)C)[C@@H]3Oc4c(O)ccc5c4[C@@]31CCN(CC1CC1)[C@@H]2C5 [72-tBu ester] | – | – | – | – | – | – | 0.32 | 9.68 |
| CO[C@@]12CC[C@H](NCC(=O)OC(C)(C)C)[C@@H]3Oc4c(O)ccc5c4[C@@]31CCN(C)[C@@H]2C5 [HS730-t-Bu ester] | – | 0.54 | 12.1 | – | – | – | – | – |
